This note sets out measurements from patent EP0006772A1, “Thieno and furopyridone derivatives, process for their preparation and medicinal preparations containing them” (OMNIUM FINANCIER AQUITAINE POUR L'HYGIENE ET LA SANTE - …, priority 1978, dated 1980).

Like-named read-outs stand apart in the source and are kept apart here.

In assay [1] the test system is oedème localisé provoqué par la carragénine. Put plainly: Carrageenan-induced localised paw oedema. The assay is classed as in vivo. The following applies: rat, 100 mg/kg oral (1 h before, at injection, 1 h and 2.5 h after). As for the experimental part:
Une solution de carragénine (0,1 ml) à 1 % est injectée dans les fléchisseurs métatarsiens de la patte postérieure droite du rat au temps O. Les animaux du lot traité reçoivent en outre, par la voie orale, 100 mg par kg du dérivé à tester respectivement 1 heure avant, en même temps que l'injection de l'agent phlogogène, puis 1 heure et 2 heures et demi après. Les mesures qui sont effectuées à l'aide du micromètre de ROCH aux temps 0, 1 heure, 2 heures, 3 heures et 5 heures après l'administration de la carragénine permettent de déterminer, en fonction du temps, le pourcentage d'activité anti-inflammatoire par comparaison avec le lot témoin.
Background: In the carrageenan paw model, swelling and tenderness develop within hours.

For assay [2], the system named is oedème généralisé à l'ovalbumine. Put plainly: Ovalbumin-induced generalised oedema. The assay is classed as in vivo. The following applies: po, rat, 100 mg/kg per os 1 h before and together with ovalbumin. As for the experimental part: Une injection intrapéritonéale simultanée de 1 ml d'ovalbumine et de 0,5 ml d'une solution aqueuse de bleu Evans à 1 % est effectuée sur le rat. D'autre part, on administre per os aux animaux du lot traité 100 mg/kg du dérivé à tester 1 heure avant et en même temps que l'ovalbumine. L'intensité du phénomène ainsi provoqué est notée par un chiffre allant de 1 à 5 suivant la progression du syndrome inflammatoire. On détermine ainsi la moyenne de l'intensité oedémateuse et le pourcentage de diminution de la réaction oedémateuse par rapport au témoin, en fonction du temps.
Les pourcentages d'activité anti-inflammatoire obtenus à la 2ème heure et 3ème heure après l'injection d'ovalbumine sont consignés dans le Tableau III suivant.

For assay [3], the system named is agrégation plaquettaire à l'A.D.P. Put plainly: ADP-induced platelet aggregation in plasma of orally treated rats (ex vivo). On the set-up: species or system rats de souche Wistar. As to conditions: Rattus norvegicus, 100 mg/kg oral, 3 hours after treatment, versus control, 10 µM A.D.P., read-out: Pourcentage d'inhibition A.D.P. As for the experimental part:
(§1) Chez des rats de souche Wistar, on effectue un prélèvement sanguin dans la veine jugulaire. A partir de ce sang citraté et après centrifugation, on reconstitue un plasma contenant 600 000 ± 20 000 plaquettes par mm^3, qui servira dans toutes les mesures d'agrégation.
(§2) On place 0,4 ml de plasma dans un tube siliconé pourvu d'une barre aimantée elle-même siliconée. Le tube est introduit dans un agrégomètre couplé à un appareil permettant d'enregistrer les variations de densité optique. Lorsque la transmission de la lumière a atteint une valeur stable, on introduit dans le tube 0,5 ml d'une solution contenant 10 µM d'A.D.P. (Adénosine-Di Phosphate).
(§3) L'agrégation des plaquettes provoque alors une augmentation de la transmission lumineuse suivie d'une diminution consécutive à la phase de désagrégation.
(§4) La variation maximale de densité optique ainsi déterminée caractérise l'intensité de l'agrégation.
(§5) Différents lots de 20 rats sont uiilisés, chaque lot recevant un dérivé à tester par la vcie orale, à la dose de 100 mg/kg de poids corporel. Les résultats obtenus au cours de ces 2 essais sont rapportés dans le Tableau I suivant qui indique le pourcentage d'inhibition de l'agrégation plaquettaire obtenu, par rapport au témoin, 3 heures après le traitement par le médicament de l'invention, dans le test de l'A.D.P. et au collagène.

The test system of assay [4] is agrégation plaquettaire au collagène. The assay can be described thus: Collagen-induced platelet aggregation in plasma of orally treated rats (ex vivo). On the set-up: species or system rats de souche Wistar. The following applies: Rattus norvegicus, 100 mg/kg oral, 3 hours after treatment, versus control, collagen (bovine tendon extract), read-out: Pourcentage d'inhibition Collagène. As to the method: as §1, §2, §3, §4
La solution d'A.D.P. est remplacée par une solution de collagène (extrait de tendons bovins).
as §5

The mark [5] stands for this setting: 1 h after carrageenan, read-out: pourcentage d'activité anti-inflammatoire Ière heure.
The mark [6] stands for this setting: 2 h after carrageenan, read-out: pourcentage d'activité anti-inflammatoire 2ème heure.
Setting [7] is: 3 h after carrageenan, read-out: pourcentage d'activité anti-inflammatoire 3ème heure.
[8] abbreviates: 5 h after carrageenan, read-out: pourcentage d'activité anti-inflammatoire 5ème heure.
Setting [9] is: 2 h after ovalbumin injection, read-out: Pourcentage d'activité anti-inflammatoire 2ème heure.
The mark [10] stands for this setting: 3 h after ovalbumin injection, read-out: Pourcentage d'activité anti-inflammatoire 3ème heure.

On to `O=c1[nH]c(-c2ccccc2)cc2ccsc12` [dérivé 15, Phényl-5 thiéno(2,3-c)pyridone-7], for which the inhibition in vivo at 100 mg/kg is 39% in assay [1] (setting [5]); 43% in assay [1] (setting [6]); 48% in assay [1] (setting [7]); 51% in assay [1] (setting [8]); 47% in assay [2] (setting [9]); 53% in assay [2] (setting [10]). Besides, the inhibition (usually the change of the read-out against control, counted positive when it falls) at 100 mg/kg amounted to 62.5% in assay [3] and 90.8% in assay [4].
In the case of `Cc1ccc(-c2cc3sccc3c(=O)[nH]2)cc1` [dérivé 5, p-tolyl-6 thiéno(3,2-c)pyridone-4], the inhibition in vivo at 100 mg/kg was found to be 38% in assay [1] (setting [5]); 41% in assay [1] (setting [6]); 46% in assay [1] (setting [7]); 51% in assay [1] (setting [8]); 50% in assay [2] (setting [9]); 55% in assay [2] (setting [10]). In addition, the inhibition at 100 mg/kg in assay [3] came to 62.6%; in assay [4], 91.4%.
Consider `O=c1[nH]c(-c2ccc(Cl)cc2)cc2sccc12` [dérivé 4, p-chlorophényl-6 thiéno(3,2-c)pyridone-4], for which the inhibition in vivo at 100 mg/kg was 41% in assay [1] (setting [5]); 44% in assay [1] (setting [6]); 48% in assay [1] (setting [7]); 52% in assay [1] (setting [8]); 47% in assay [2] (setting [9]); 53% in assay [2] (setting [10]). Besides, the inhibition at 100 mg/kg was 61.2% in assay [3] and 90.5% in assay [4].
For `O=c1[nH]c(-c2ccccc2Cl)cc2ccsc12` [dérivé 16, o-chlorophényl-5 thiéno(2,3-c)pyridone-7], the inhibition in vivo at 100 mg/kg was found to be 37% in assay [1] (setting [5]); 41% in assay [1] (setting [6]); 47% in assay [1] (setting [7]); 50% in assay [1] (setting [8]); 46% in assay [2] (setting [9]); 54% in assay [2] (setting [10]). The inhibition at 100 mg/kg worked out at 60.1% in assay [3] and 90.2% in assay [4].
